Data as given in patent US20230257351A1, “SUBSTITUTED N-[…] HAVING P2X4 RECEPTOR ANTAGONISTIC ACTIVITY” (Bayer Aktiengesellschaft, priority 2020, published 2023).

What was measured:
[1] = biological target: T1, human P2X4 (Homo sapiens, UniProt Q99571); assay: Human P2X4 HEK Cell FLIPR Assay; format: cell-based; conditions: HEK293 stably expressing human P2X4, agonist Bz-ATP 3 μM (EC80); for IC50: read-out: Human P2X4 HEK Cells (FLIPR Assay) avg IC50
T1 construct: expressed in transfected cells
T1 sequence (Q99571 1-388): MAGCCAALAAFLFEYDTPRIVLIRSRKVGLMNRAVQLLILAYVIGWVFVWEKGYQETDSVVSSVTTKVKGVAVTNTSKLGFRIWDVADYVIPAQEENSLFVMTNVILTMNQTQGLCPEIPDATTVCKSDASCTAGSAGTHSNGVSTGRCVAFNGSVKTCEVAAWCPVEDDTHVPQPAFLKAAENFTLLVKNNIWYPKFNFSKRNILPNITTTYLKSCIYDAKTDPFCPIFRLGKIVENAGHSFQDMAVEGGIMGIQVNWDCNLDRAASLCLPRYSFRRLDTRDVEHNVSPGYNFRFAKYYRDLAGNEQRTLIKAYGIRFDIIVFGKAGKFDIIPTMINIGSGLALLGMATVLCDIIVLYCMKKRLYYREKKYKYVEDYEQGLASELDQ
Method in brief: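 HEK293 cells stably expressing human P2X4 were loaded with Fluo8-AM (30 min, 37 °C, HBSS/HEPES pH 7.4 with probenecid), then preincubated 30 min at room temperature with compound, 25 μM–1 nM final, 0.5% DMSO. Bz-ATP-evoked calcium fluorescence was read on FLIPR; data were normalized to agonist control and given a four-parameter fit for IC50.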

[2] = biological target: T2, rat P2X4 (Rattus norvegicus, UniProt P51577); assay: FLIPR Method for Rat P2X4 1321N1 Astrocytoma Cells; format: cell-based; conditions: 1321N1 stably expressing rat P2X4; agonist MgATP 5 μM (EC80)
T2 construct: expressed in transfected cells
T2 sequence (P51577 1-388): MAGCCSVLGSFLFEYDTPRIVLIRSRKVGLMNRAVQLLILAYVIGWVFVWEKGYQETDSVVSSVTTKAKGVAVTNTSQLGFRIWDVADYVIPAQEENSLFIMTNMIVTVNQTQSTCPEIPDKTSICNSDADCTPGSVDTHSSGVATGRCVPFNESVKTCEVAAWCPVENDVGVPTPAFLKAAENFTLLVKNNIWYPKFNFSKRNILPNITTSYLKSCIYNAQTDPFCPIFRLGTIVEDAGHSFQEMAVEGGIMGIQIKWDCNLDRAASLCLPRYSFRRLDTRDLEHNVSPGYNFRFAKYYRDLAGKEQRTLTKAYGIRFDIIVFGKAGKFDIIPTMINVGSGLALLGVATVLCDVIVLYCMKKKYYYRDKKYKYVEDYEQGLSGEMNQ
Method in brief: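 1321N1 cells stably expressing rat P2X4, Fluo8-AM loaded; compounds (25 μM to 1 nM final, ten concentrations) preincubated 30 min at room temperature, then MgATP added at 5 μM (EC80). Calcium fluorescence read on FLIPR before and after agonist; triplicate data normalized to agonist control, four-parameter fit gives IC50.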

| Compound | Human P2X4 HEK Cells (FLIPR Assay) avg Efficacy [1] | IC50 [1] | IC50 [2] | Rat P2X4 1321N1 Astrocytoma Cells (FLIPR Assay) avg Efficacy [2] |
| --- | --- | --- | --- | --- |
| COc1cccc(N(C(C)=O)c2cc(NC(=O)Cc3cccc(F)c3Cl)ccn2)c1 [Example 101, N-{4-[2-(2-chloro-3-fluorophenyl)acetamido]pyridin-2-yl}-N-(3-methoxyphenyl)acetamide] | 97% | 406 nM | 971 nM | 100% |
| CC(=O)N(c1ccc(Cl)c(F)c1)c1cc(NC(=O)Cc2ccccc2Cl)ccn1 [Example 58, N-(4-chloro-3-fluorophenyl)-N-{4-[2-(2-chlorophenyl)acetamido]pyridin-2-yl}acetamide] | 95% | 351 nM | 350 nM | 86% |
| CC(=O)N(c1ccc(F)c(C#N)c1)c1cc(NC(=O)Cc2cccc(F)c2Cl)ccn1 [Example 23, N-{4-[2-(2-chloro-3-fluorophenyl)acetamido]pyridin-2-yl}-N-(3-cyano-4-fluorophenyl)acetamide] | 99% | 356 nM | 483 nM | 96% |
| CC(=O)N(c1ccc(F)c(F)c1)c1cc(NC(=O)Cc2c(Cl)cc(F)cc2Cl)ccn1 [Example 73, N-{4-[2-(2,6-dichloro-4-fluorophenyl)acetamido]pyridin-2-yl}-N-(3,4-difluorophenyl)acetamide] | 97% | 428 nM | 67.1 nM | 93% |
| CC(=O)N(c1ccc(F)cc1)c1cc(NC(=O)Cc2ccccc2Cl)ccn1 [Example 36, N-{4-[2-(2-chlorophenyl)acetamido]pyridin-2-yl}-N-(4-fluorophenyl)acetamide] | 91% | 206 nM | 290 nM | 90% |
| CC(=O)N(c1cccc(Cl)c1)c1cc(NC(=O)Cc2c(F)cccc2Cl)ccn1 [Example 135, N-{4-[2-(2-chloro-6-fluorophenyl)acetamido]pyridin-2-yl}-N-(3-chlorophenyl)acetamide] | 99% | 281 nM | 264 nM | 96% |
| CC(=O)N(c1ccc(F)c(F)c1)c1cc(NC(=O)Cc2c(C)cc(Cl)cc2Cl)ccn1 [Example 64, N-{4-[2-(2,4-dichloro-6-methylphenyl)acetamido]pyridin-2-yl}-N-(3,4-difluorophenyl)acetamide] | 96% | 829 nM | 497 nM | 100% |
| CC(=O)N(c1cccc(F)c1)c1cc(NC(=O)Cc2ccccc2Cl)ccn1 [Example 54, N-{4-[2-(2-chlorophenyl)acetamido]pyridin-2-yl}-N-(3-fluorophenyl)acetamide] | 97% | 269 nM | 447 nM | 97% |
| CC(=O)N(c1cccc(Cl)c1)c1cc(NC(=O)Cc2cccc(F)c2Cl)ccn1 [Example 133, N-{4-[2-(2-chloro-3-fluorophenyl)acetamido]pyridin-2-yl}-N-(3-chlorophenyl)acetamide] | 100% | 193 nM | 325 nM | 100% |
| CC(=O)N(c1cc(NC(=O)Cc2ccc(F)cc2Cl)ccn1)c1ccc(F)cc1F [Example 127, N-{4-[2-(2-chloro-4-fluorophenyl)acetamido]pyridin-2-yl}-N-(2,4-difluorophenyl)acetamide] | 97% | 283 nM | 261 nM | 72% |
| CC(=O)N(c1ccc(F)c(F)c1)c1cc(NC(=O)Cc2ccccc2C(F)(F)F)ccn1 [Example 63, N-(3,4-difluorophenyl)-N-(4-{2-[2-(trifluoromethyl)phenyl]acetamido}pyridin-2-yl)acetamide] | 97% | 424 nM | 372 nM | 97% |
